Reference: patent US20170035863A1 (UNIVERSITY OF LEEDS, priority 2014, published 2017)

Experiments:
[1] = tested on: human normal pool platelet poor plasma; experiment: Activated Partial Thromboplastin Time (aPTT) clotting assay; format: biochemical; conditions: for Mean aPTT: platelet poor plasma, mean ± SEM
Procedure: The activated Partial Thromboplastin Time (aPTT) employed was the PTT Automate 5 reagent kit from Stago. The coagulometer (Start 4, Diagnostica Stago, Asnieres sur Seine Cedex, France) was preheated to 37° C. prior to starting any measurements. A sample of human normal pool platelet poor plasma (n=22) was defrosted at 37° C. from −80° C. […] Then 48.5 μL of PTT automate was added to the cuvette and left to incubate for 180 seconds at 37° C. in the coagulometer, after which 50 μL of 25 mM calcium chloride was immediately added to initiate clotting. At the end of the test, the time clotting times were recorded.
This method is known to the person skilled in the art.

[2] = tested on: murine tail bleeding model; experiment: Murine tail bleeding time; format: in vivo, C57BL/6 male mice
Description: The same animals employed for anticoagulant efficacy were subjected to tail bleeding immediately following the end of the efficacy experiments. Tails were cut with a scalpel at 2 mm diameter using a home-made device for measuring tail diameter. The tails were immediately suspended into lml warmed saline and the time taken to cessation of bleeding monitored (panel A). The collected saline/blood mix at the end of the experiments were frozen and subjected to haemoglobin determination (panel B).
The same animals employed for anticoagulant efficacy were subjected to tail bleeding immediately following the end of the efficacy experiments. Tails were cut with a scalpel at 2 mm diameter using a home-made device for measuring tail diameter. The tails were immediately suspended into 1 ml warmed saline and the time taken to cessation of bleeding monitored.

thrombin = thrombin (Homo sapiens, UniProt P00734); experiment: Thrombin activity, chromogenic substrate S-2238 (IC50); format: biochemical
Procedure: Thrombin activity was measured using a chromogenic substrate S-2238 (Quadratec). […] Kinetic readings at 405 nm were monitored every 12 seconds for a total duration of 3 hours at 37° C. Gradients of initial rates were determined and employed to calculate IC50 values using Grafit software.

Molecule | Mean aPTT ([1]; 0.11 nM, 3 min incubation) [s] | Mean aPTT ([1]; 0.44 nM) [s] | Mean aPTT ([1]; 0.88 nM) [s] | Mean aPTT ([1]; 1.75 nM) [s] | Mean aPTT ([1]; 3.50 nM) [s] | Mean aPTT ([1]; 7.00 nM) [s] | Mean aPTT ([1]; 14.00 nM) [s] | Mean aPTT ([1]; 28.00 nM) [s] | Mean aPTT ([1]; 56.00 nM) [s] | Mean aPTT ([1]; 112.00 nM) [s] | Mean aPTT ([1]; 224.00 nM) [s] | Mean aPTT ([1]; 448.00 nM) [s] | potency in aPTT, comparison ([1]; in plasma) | prolongation of bleeding time ([2]; 20 mg/kg, at the end of the experiment) [fold] | risk of bleeding ([2]; at doses achieving 50% inhibition of fibrin clot formation) | prolongation of bleeding time ([2]; at the dose required to achieve at least 50% inhibition of fibrin clot formation) [fold] | IC50 (thrombin) [nM]
CC[C@H](C)[C@H](NC(=O)[C@H](C)NC(=O)[C@H](CCC(=O)O)NC(=O)[C@H](Cc1ccccc1)NC(=O)[C@H](CC(=O)O)NC(=O)[C@H](Cc1ccccc1)NC(=O)[C@@H]1CCCN1C(=O)[C@@H]1CCCN1C(=O)[C@H](C)NC(=O)[C@@H](NC(=O)[C@H](CCCCN)NC(=O)[C@H](Cc1c[nH]cn1)NC(=O)[C@H](CCSC)NC(=O)[C@H](CCCNC(=N)N)NC(=O)[C@@H]1CCCN1C(=O)[C@H](CCC(=O)O)NC(=O)[C@H](C)NC(=O)[C@@H](NC(=O)[C@@H](N)CC(=O)O)C(C)C)[C@@H](C)O)C(=O)N1CCC[C@H]1C(=O)N[C@@H](CCC(=O)O)C(=O)N[C@@H](CCC(=O)O)C(=O)N[C@@H](Cc1ccc(O)cc1)C(=O)N[C@@H](Cc1ccc(OS(=O)(=O)O)cc1)C(=O)N[C@@H](CC(C)C)C(=O)O [SYM-3491-SO3] | 32.03 ± 0.07 | 32.07 ± 0.03 | 31.83 ± 0.03 | 32.20 ± 0.15 | 32.33 ± 0.07 | 33.27 ± 0.27 | 35.33 ± 0.33 | 38.23 ± 0.48 | 44.17 ± 0.43 | 49.87 ± 0.20 | 60.33 ± 0.17 | 70.97 ± 0.69 | slightly less than variegin | ~2 | increases risk of bleeding | ~2 | 172 ± 6.5
bivalirudin [reference compound] | 32.03 ± 0.35 | 31.07 ± 0.09 | 31.20 ± 0.06 | 31.47 ± 0.37 | 32.43 ± 0.13 | 36.30 ± 0.20 | 40.27 ± 0.60 | 46.13 ± 1.25 | 53.97 ± 0.26 | 63.43 ± 2.32 | 79.50 ± 0.75 | 89.77 ± 3.99 |  |  |  |  | 
